Source: patent US20110318273A1, “FLUORESCENT CONTRAST AGENTS” (GE HEALTHCARE AS, priority 2004, published 2011)

Tests used:
[1] = Oxidation of reduced rhodamine 110 by hydrogen peroxide, increase in fluorescence; conditions: hydrogen peroxide 10 μM final; emission 538 nm, excitation 485 nm
Protocol: Rhodamine 110 was reduced as in Example 2. Hydrogen peroxide to a final concentration of 10 μM was added to a portion of the solution of reduced rhodamin 110, i.e. to dihydrorhodamin 110, and the increase in fluorescence was recorded at 538 nm (excitation at 485 nm) on a Thermo Fluoroscan Ascent FL fluorimeter.

[2] = Re-oxidation of the diluted, reduced fluorochrome in air, spectrum recorded; type: physicochemical; conditions: gently oxidized in air
Protocol: (§1) To 2 ml of a 1 mM solution of rhodamine 800 (Fluke, prod. No. 83701) in 0.1 M borate buffer, pH 8.5 was added approximately 5 mg of sodium borohydride. The mixture was shaken and left at room temperature for two hours. 40 microliters of the reduced solution was added to 960 μl of phosphate-buffered saline, pH 7.4. […] The spectrum of untreated rhodamine 800 (solid line) was recorded by exactly the same procedure. The sample of diluted, reduced fluorochrome was gently oxidized in air and its spectrum recorded (dashed line).
as §1, with “110 (Fluka,” for “800 (Fluke,”, “83695)” for “83701)”, “110” for “800”
as §1, with “fluorescein (Sigma,” for “rhodamine 800 (Fluke,”, “F-6377)” for “83701)”, “fluorescein” for “rhodamine 800”

[3] = Absorption spectrum of the reduced fluorochrome in phosphate-buffered saline (diode array spectrophotometer); type: physicochemical; conditions: for absorption in the visible region: reduced with sodium borohydride, diluted in phosphate-buffered saline, pH 7.4
Protocol: as §1
as §1, with “110 (Fluka,” for “800 (Fluke,”, “83695)” for “83701)”, “110” for “800”
as §1, with “fluorescein (Sigma,” for “rhodamine 800 (Fluke,”, “F-6377)” for “83701)”, “fluorescein” for “rhodamine 800”

optical properties after oxidation of the reduced fluorochrome [2]	fluorescence following exposure to visible light [3]	Structure (SMILES)	oxidation by hydrogen peroxide (increase in fluorescence) [1]	absorption in the visible region [3]
regaining its optical properties	very little fluorescence	Nc1ccc2c(c1)Oc1cc(N)ccc1C2c1ccccc1C(=O)O [dihydro-rhodamine 110]	rapidly oxidised	virtually no absorption in the visible region
regaining its optical properties	no fluorescence	N#CC1c2cc3c4c(c2Oc2c1cc1c5c2CCCN5CCC1)CCCN4CCC3 [dihydro-rhodamine 800]		losing nearly all absorption in the visible region
regaining its optical properties	no fluorescence	O=C(O)c1ccccc1C1c2ccc(O)cc2Oc2cc(O)ccc21 [dihydrofluorescein]		losing nearly all absorption in the visible region
